# Data reported in patent US20260022142A1, “MACROCYCLIC IMMUNOMODULATORS” (Bristol-Myers Squibb Company, priority 2022, published 2026).
# Numbered stars: 1 amine (or outer) side, 2 acyl side, 3 side chain; on linkers, the order of the positions; unused ones are H or OH. Bridge positions count the residues as written; N and C are the ends. Square brackets hold non-standard residues; d marks the D form. Peptide text beside a SMILES is read from it. * marks the point of attachment. ξ: configuration not given here. Bip = N[C@@H](Cc1ccc(-c2ccccc2)cc1)C(=O)O; NH(CH2)14COOH = O=C(O)CCCCCCCCCCCCCCN*; Phe(3-Me) = Cc1cccc(C[C@H](N)C(=O)O)c1; X5 = CC(C)(CCN)[C@H](N[*:1])C(=O)[*:2]; NH(CH2)12COOH = O=C(O)CCCCCCCCCCCCN*; Bta = N[C@@H](Cc1csc2ccccc12)C(=O)O; Val(3-OH) = CC(C)(O)[C@H](N)C(=O)O; hArg = N=C(N)NCCCC[C@H](N)C(=O)O; 4Pal = N[C@@H](Cc1ccncc1)C(=O)O; Cha = N[C@@H](CC1CCCCC1)C(=O)O; Cit = NC(=O)NCCC[C@H](N)C(=O)O; Tle = CC(C)(C)[C@H](N)C(=O)O; Carboxymethyl = O=C(O)C*; Orn = NCCC[C@H](N)C(=O)O; Pra = C#CC[C@H](N)C(=O)O; Aun = NCCCCCCCCCCC(=O)O; Dab = NCC[C@H](N)C(=O)O; Dap = NC[C@H](N)C(=O)O; AEEA = NCCOCCOCC(=O)O; ξDab = NCCC(N)C(=O)O
# Biological target: T1, PD-1/PD-L1 interaction (PE-labeled human PD-L1-Ig binding to Jurkat cell line over-expressing human PD-1) (Homo sapiens, UniProt Q15116)
# T1 construct: expressed in transfected cells; host or cells: Jurkat
# T1 sequence (Q15116 25-288): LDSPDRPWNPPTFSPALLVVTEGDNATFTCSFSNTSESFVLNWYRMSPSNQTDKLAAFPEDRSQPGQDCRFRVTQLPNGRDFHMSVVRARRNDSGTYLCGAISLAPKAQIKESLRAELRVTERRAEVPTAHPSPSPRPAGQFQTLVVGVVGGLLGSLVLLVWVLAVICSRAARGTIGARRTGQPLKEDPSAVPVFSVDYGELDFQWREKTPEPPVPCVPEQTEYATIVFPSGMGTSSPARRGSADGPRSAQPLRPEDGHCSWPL
# Assay: Jurkat-PD-1 Cell Binding High-Content Screening Assay (CBA)
# Assay type: cell-based
# Conditions: Jurkat cell line over-expressing human PD-1; PE-labeled PD-L1-Ig 20 nM final; read-out: Jurkat hPD1-PDL1 IC50
# Method in brief: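 Jurkat cells over-expressing human PD-1 (8×10^3 per well, DMEM/10% FCS) preincubated with compound 2 h at 37° C, then PE-labeled human PD-L1-Ig (20 nM final) added for 1 h. Cells fixed with paraformaldehyde, Hoechst-stained, and bound fluorescence quantified by high-content imaging.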
row,Structure (SMILES),IC50
1,Cc1cccc(C[C@@H]2NC(=O)[C@H](CC(=O)O)NC(=O)[C@H](Cc3ccc(OCC(=O)O)cc3)NC(=O)[C@H](CN)NC(=O)CSC[C@@H](C(=O)N[C@@H](CCN)C(=O)NCCCCCCCCCCC(=O)O)NC(=O)[C@@H](CO)NC(=O)[C@H](C(C)C)NC(=O)[C@H](CC3CCCCC3)NC(=O)[C@H](CCN)NC(=O)[C@@H](CC(C)C)NC(=O)[C@H](CCCN)NC(=O)[C@H](Cc3ccc(OCC(=O)O)cc3)NC(=O)[C@H](Cc3ccc(-c4ccccc4)cc3)NC(=O)[C@H](C(C)C)NC2=O)c1 [Compound 2097] ({CH2CO}-[Dap]Y(Carboxymethyl)D[Phe(3-Me)]V[Bip]Y(Carboxymethyl)[Orn][dL][Dab][Cha]V[dS]C[Dab][Aun]-OH; thioether N-14),0.0388 µM
2,Cc1cccc(C[C@@H]2NC(=O)[C@H](CC(=O)O)NC(=O)[C@H](Cc3ccc(OCC(=O)O)cc3)NC(=O)[C@H](C)NC(=O)CSC[C@@H](C(=O)N[C@@H](CCN)C(=O)NCCOCCOCC(=O)NCCCCCCCCCCCCCCC(=O)O)NC(=O)[C@H](Cc3cnc[nH]3)NC(=O)[C@H](C(C)(C)O)NC(=O)[C@H](CC3CCCCC3)NC(=O)[C@H](CCN)NC(=O)[C@@H](CC(C)C)NC(=O)[C@H](CCCN)NC(=O)[C@H](Cc3ccc(OCC(=O)O)cc3)NC(=O)[C@H](Cc3ccc(-c4ccccc4)cc3)NC(=O)[C@H](Cc3ccc(OCC(=O)O)cc3)NC2=O)c1 [Compound 3851] ({CH2CO}-AY(Carboxymethyl)D[Phe(3-Me)]Y(Carboxymethyl)[Bip]Y(Carboxymethyl)[Orn][dL][Dab][Cha][Val(3-OH)]HC[Dab][AEEA]-{NH(CH2)14COOH}; thioether N-14),0.125 µM
3,C#CC[C@H](NC(=O)COCCOCCNC(=O)[C@H](Cc1cnc[nH]1)NC(=O)[C@@H]1CSCC(=O)N[C@@H](Cc2ccncc2)C(=O)N[C@@H](Cc2ccc(OCC(=O)O)cc2)C(=O)N[C@@H](CC(=O)O)C(=O)N[C@@H](Cc2c[nH]c3ccccc23)C(=O)N[C@@H](C(C)C)C(=O)N[C@@H](Cc2ccc(-c3ccccc3)cc2)C(=O)N[C@@H]([C@@H](C)CC)C(=O)N[C@@H](CCCN)C(=O)N[C@H](CC(C)C)C(=O)N[C@@H](CCN)C(=O)N[C@@H](CC(C)C)C(=O)N[C@@H](C(C)C)C(=O)N[C@@H]([C@@H](C)O)C(=O)N1)C(=O)NCCCCCCCCCCC(=O)O [Compound 1210] ({CH2CO}-[4Pal]Y(Carboxymethyl)DWV[Bip]I[Orn][dL][Dab]LVTCH[AEEA][Pra][Aun]-OH; thioether N-14),0.0222 µM
4,Cc1cccc(C[C@@H]2NC(=O)[C@H](CC(=O)O)NC(=O)[C@H](Cc3ccc(OCC(=O)O)cc3)NC(=O)[C@H](Cc3ccc(OCC(=O)O)cc3)NC(=O)CSC[C@@H](C(=O)N[C@@H](CCN)C(=O)NCCCCCCCCCCC(=O)O)NC(=O)[C@H]([C@@H](C)O)NC(=O)[C@H](C(C)C)NC(=O)[C@H](CC3CCCCC3)NC(=O)[C@H](CCN)NC(=O)[C@@H](CC(C)C)NC(=O)[C@H](CCCN)NC(=O)[C@H](CCCNC(N)=O)NC(=O)[C@H](Cc3ccc(-c4ccccc4)cc3)NC(=O)[C@H](C(C)C)NC2=O)c1 [Compound 2828] ({CH2CO}-Y(Carboxymethyl)Y(Carboxymethyl)D[Phe(3-Me)]V[Bip][Cit][Orn][dL][Dab][Cha]VTC[Dab][Aun]-OH; thioether N-14),0.0774 µM
5,CC(C)C[C@H]1NC(=O)[C@H](CCCN)NC(=O)[C@H](C(C)C)NC(=O)[C@H](Cc2ccc(-c3ccccc3)cc2)NC(=O)[C@H](C(C)C)NC(=O)[C@H](Cc2c[nH]c3ccccc23)NC(=O)[C@H](CC(=O)O)NC(=O)[C@H](Cc2c[nH]cn2)NC(=O)[C@H](CCCCNC(=N)N)NC(=O)CSC[C@@H](C(=O)NCC(=O)NCCOCCOCC(=O)N[C@@H](CCCN)C(=O)NCCCCCCCCCCC(=O)O)NC(=O)[C@H](CO)NC(=O)[C@H](C(C)C)NC(=O)[C@H](CC2CCCCC2)NC(=O)[C@H](CCN)NC1=O [Compound 3200] ({CH2CO}-[hArg]HDWV[Bip]V[Orn][dL][Dab][Cha]VSCG[AEEA][Orn][Aun]-OH; thioether N-14),0.0073 µM
6,Cc1cccc(C[C@@H]2NC(=O)[C@H](CC(=O)O)NC(=O)[C@H](Cc3ccc(OCC(=O)O)cc3)NC(=O)[C@H](CN)NC(=O)CSC[C@@H](C(=O)N[C@@H](CCN)C(=O)NCCCCCCCCCCC(=O)O)NC(=O)[C@H](CCC(N)=O)NC(=O)[C@H](C(C)C)NC(=O)[C@H](CC3CCCCC3)NC(=O)[C@H](CCN)NC(=O)[C@@H](CC(C)C)NC(=O)[C@H](CCCN)NC(=O)[C@H](Cc3ccc(O)cc3)NC(=O)[C@H](Cc3ccc(-c4ccccc4)cc3)NC(=O)[C@H](C(C)C)NC2=O)c1 [Compound 2719] ({CH2CO}-[Dap]Y(Carboxymethyl)D[Phe(3-Me)]V[Bip]Y[Orn][dL][Dab][Cha]VQC[Dab][Aun]-OH; thioether N-14),0.0074 µM
7,Cc1cccc(C[C@@H]2NC(=O)[C@H](CC(=O)O)NC(=O)[C@H](Cc3ccc(OCC(=O)O)cc3)NC(=O)[C@H](CN)NC(=O)CSC[C@@H](C(=O)NCC(=O)N[C@@H](CCC(=O)O)C(=O)NCCCCCCCCCCC(=O)O)NC(=O)[C@H]([C@@H](C)O)NC(=O)[C@H](C(C)C)NC(=O)[C@H](CC3CCCCC3)NC(=O)[C@H](CCN)NC(=O)[C@@H](CC(C)C)NC(=O)[C@H](CCCN)NC(=O)[C@H](CCCNC(N)=O)NC(=O)[C@H](Cc3ccc(-c4ccccc4)cc3)NC(=O)[C@H](C(C)C)NC2=O)c1 [Compound 1292] ({CH2CO}-[Dap]Y(Carboxymethyl)D[Phe(3-Me)]V[Bip][Cit][Orn][dL][Dab][Cha]VTCGE[Aun]-OH; thioether N-14),0.018 µM
8,Cc1cccc(C[C@@H]2NC(=O)[C@H](CC(=O)O)NC(=O)[C@H](Cc3ccc(OCC(=O)O)cc3)NC(=O)[C@H](CCCNC(=N)N)NC(=O)CSC[C@@H](C(=O)N[C@@H](CCCN)C(=O)NCCCCCCCCCCC(=O)O)NC(=O)[C@H](CCC(N)=O)NC(=O)[C@H](C(C)C)NC(=O)[C@H](CC3CCCCC3)NC(=O)[C@H](CCN)NC(=O)[C@@H](CC(C)C)NC(=O)[C@H](CCN)NC(=O)[C@H](CCCNC(N)=O)NC(=O)[C@H](Cc3ccc(-c4ccccc4)cc3)NC(=O)[C@H](C(C)C)NC2=O)c1 [Compound 2798] ({CH2CO}-RY(Carboxymethyl)D[Phe(3-Me)]V[Bip][Cit][Dab][dL][Dab][Cha]VQC[Orn][Aun]-OH; thioether N-14),0.0071 µM
9,Cc1cccc(C[C@@H]2NC(=O)[C@H](CC(=O)O)NC(=O)[C@H](Cc3ccc(OCC(=O)O)cc3)NC(=O)[C@H](C(C)(C)CCN)NC(=O)CSC[C@@H](C(=O)N[C@@H](CCN)C(=O)NCCCCCCCCCCCCC(=O)O)NC(=O)[C@H](CO)NC(=O)[C@H](C(C)(C)O)NC(=O)[C@H](CC3CCCCC3)NC(=O)[C@H](CCN)NC(=O)[C@@H](CC(C)C)NC(=O)[C@H](CCCN)NC(=O)[C@H](Cc3ccc(OCC(=O)O)cc3)NC(=O)[C@H](Cc3ccc(-c4ccccc4)cc3)NC(=O)[C@H](Cc3ccc(OCC(=O)O)cc3)NC2=O)c1 [Compound 2176] ({CH2CO}-[X5]Y(Carboxymethyl)D[Phe(3-Me)]Y(Carboxymethyl)[Bip]Y(Carboxymethyl)[Orn][dL][Dab][Cha][Val(3-OH)]SC[Dab]-{NH(CH2)12COOH}; thioether N-14),0.105 µM

# Further lines, results first:
row,IC50,Structure (SMILES)
1,0.0171 µM,CC(C)C[C@H]1NC(=O)[C@H](CCCN)NC(=O)[C@H](C(C)C)NC(=O)[C@H](Cc2ccc(-c3ccccc3)cc2)NC(=O)[C@H](C(C)C)NC(=O)[C@H](Cc2csc3ccccc23)NC(=O)[C@H](CC(=O)O)NC(=O)[C@H](Cc2ccc(OCC(=O)O)cc2)NC(=O)[C@H](CCCCNC(=N)N)NC(=O)CSC[C@@H](C(=O)NCCOCCOCC(=O)N[C@@H](CCCN)C(=O)NCCCCCCCCCCC(=O)O)NC(=O)[C@H](CO)NC(=O)[C@H](C(C)C)NC(=O)[C@H](CC2CCCCC2)NC(=O)[C@H](CCN)NC1=O [Compound 3066] ({CH2CO}-[hArg]Y(Carboxymethyl)D[Bta]V[Bip]V[Orn][dL][Dab][Cha]VSC[AEEA][Orn][Aun]-OH; thioether N-14)
2,0.0878 µM,Cc1cccc(C[C@@H]2NC(=O)[C@H](CC(=O)O)NC(=O)[C@H](Cc3ccc(OCC(=O)O)cc3)NC(=O)[C@H](CCCNC(=N)N)NC(=O)CSC[C@@H](C(=O)N[C@H](CC(N)=O)C(=O)NCCCCCCCCCCC(=O)O)NC(=O)[C@H](CCC(N)=O)NC(=O)[C@H](C(C)(C)C)NC(=O)[C@H](CC3CCCCC3)NC(=O)[C@H](CCN)NC(=O)[C@@H](CC(C)C)NC(=O)[C@H](CCCN)NC(=O)[C@H](Cc3ccc(OCC(=O)O)cc3)NC(=O)[C@H](Cc3ccc(-c4ccccc4)cc3)NC(=O)[C@H](Cc3ccc(OCC(=O)O)cc3)NC2=O)c1 [Compound 3528] ({CH2CO}-RY(Carboxymethyl)D[Phe(3-Me)]Y(Carboxymethyl)[Bip]Y(Carboxymethyl)[Orn][dL][Dab][Cha][Tle]QC[dN][Aun]-OH; thioether N-14)
3,0.0165 µM,CC(C)C[C@H]1NC(=O)[C@H](CCCN)NC(=O)[C@H](C(C)C)NC(=O)[C@H](Cc2ccc(-c3ccccc3)cc2)NC(=O)[C@H](C(C)C)NC(=O)[C@H](Cc2c[nH]c3ccccc23)NC(=O)[C@H](CC(=O)O)NC(=O)[C@H](Cc2ccc(OCC(=O)O)cc2)NC(=O)[C@H](CN)NC(=O)CSC[C@@H](C(=O)N[C@@H](CCCCN)C(=O)NCCOCCOCC(=O)NCCCCCCCCCCC(=O)O)NC(=O)[C@H](CCCCN)NC(=O)[C@H](C(C)C)NC(=O)[C@H](CC2CCCCC2)NC(=O)[C@H](CCN)NC1=O [Compound 2525] ({CH2CO}-[Dap]Y(Carboxymethyl)DWV[Bip]V[Orn][dL][Dab][Cha]VKCK[AEEA][Aun]-OH; thioether N-14)
4,0.132 µM,CC(C)C[C@H]1NC(=O)[C@H](CCCN)NC(=O)[C@H](Cc2ccc(O)cc2)NC(=O)[C@H](Cc2ccc(-c3ccccc3)cc2)NC(=O)[C@H](Cc2ccc(O)cc2)NC(=O)[C@H](Cc2c[nH]c3ccccc23)NC(=O)[C@H](CC(=O)O)NC(=O)[C@H](Cc2ccc(OCC(=O)O)cc2)NC(=O)[C@H](Cc2ccc(OCC(=O)O)cc2)NC(=O)CSC[C@@H](C(=O)NC(CCN)C(=O)NCCCCCCCCCCC(=O)O)NC(=O)[C@H](CCCNC(=N)N)NC(=O)[C@H](Cc2ccc(O)cc2)NC(=O)[C@H](CC2CCCCC2)NC(=O)[C@H](CCN)NC1=O (stereo partly drawn) [Compound 2508] ({CH2CO}-Y(Carboxymethyl)Y(Carboxymethyl)DWY[Bip]Y[Orn][dL][Dab][Cha]YRC[ξDab][Aun]-OH; thioether N-14)
